Reference: patent US11242361B2 (Proteostasis Therapeutics, Inc., priority 2013, dated 2022)

The molecules below were run against USP14 (Homo sapiens (Human), UniProt P54578) (assay: USP14 Inhibition Assay). Conditions: average value from a minimum of two experimental determinations.
Chain of USP14 (P54578 whole entry, looked up): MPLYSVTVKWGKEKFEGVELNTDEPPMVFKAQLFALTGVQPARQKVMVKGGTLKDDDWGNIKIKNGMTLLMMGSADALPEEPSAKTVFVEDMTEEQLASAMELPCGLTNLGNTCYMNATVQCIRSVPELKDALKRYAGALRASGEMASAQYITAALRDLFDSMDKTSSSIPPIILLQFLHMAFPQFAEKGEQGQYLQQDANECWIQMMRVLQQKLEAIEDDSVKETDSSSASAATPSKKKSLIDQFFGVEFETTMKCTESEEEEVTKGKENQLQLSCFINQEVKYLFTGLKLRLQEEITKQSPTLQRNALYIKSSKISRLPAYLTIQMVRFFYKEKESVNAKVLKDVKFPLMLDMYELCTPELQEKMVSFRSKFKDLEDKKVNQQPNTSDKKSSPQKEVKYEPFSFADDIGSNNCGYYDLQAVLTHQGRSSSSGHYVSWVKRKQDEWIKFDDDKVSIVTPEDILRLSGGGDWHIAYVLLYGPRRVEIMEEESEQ
Format: biochemical
Procedure: Example 17: USP14 Inhibition Assay
“I” in the Table below designates an IC50 of >5 μM, “II” in the Table below designates and IC50 between 0.5 and 5 μM, and “III” designates an IC50<0.5 μM. The IC50 values in the Table below represent the average value from a minimum of two experimental determinations.
With `Cc1c(C(=O)CN2CCC[C@H]2C)c2ncc(Br)cc2n1-c1ccc(C#N)cc1` [Compound 306] the “IC50 Category” value was “IIII”.

Same assay, conditions: average value from a minimum of two experimental determinations, read-out: IC50 Category
Molecule `Cc1c(C(=O)CN2CCCCC2)c2ncc(CCC(=O)NCCCN=[N+]=[N-])cc2n1-c1ccc(C#N)cc1` [Compound 299] has an IC50 of less than 500 nM. With `Cc1c(C(=O)CN2CCCCC2)c2ncc(C(F)(F)F)cc2n1-c1ccc(C#N)cc1` [Compound 300] the IC50 was less than 500 nM. Molecule `Cc1c(C(=O)CN2CCCCC2)c2ncc(C(F)F)cc2n1-c1ccc(C#N)cc1` [Compound 301, 4-(6-(Difluoromethyl)-2-methyl-3-(2-(piperidin-1-yl)acetyl)-1H-pyrrolo[3,2-b]pyridin-1-yl)benzonitrile] has an IC50 of less than 500 nM. `Cc1c(C(=O)CN2CCC(O)CC2)c2ncc(C(F)(F)F)cc2n1-c1ccc(C#N)cc1` [Compound 302] was tested, and the IC50 was less than 500 nM. Molecule `CCN(CCc1cnc2c(C(=O)CN3CCCCC3)c(C)n(-c3ccc(Cl)cc3)c2c1)S(C)(=O)=O` [Compound 303, N-(2-(1-(4-Chlorophenyl)-2-methyl-3-(2-(piperidin-1-yl)acetyl)-1H-pyrrolo[3,2-b]pyridin-6-yl)ethyl)-N-ethylmethanesulfonamide] has an IC50 of less than 500 nM. `Cc1c(C(=O)CN2CCCCC2)c2ncc(CCC(=O)NCCN=[N+]=[N-])cc2n1-c1ccc(C#N)cc1` [Compound 304] gave an IC50 of less than 500 nM. For `CCNC(=O)/C=C/c1cnc2c(C(=O)CN3CCCCC3)c(C)n(-c3ccc(C#N)cc3)c2c1` [Compound 305, (E)-3-(1-(4-Cyanophenyl)-2-methyl-3-(2-(piperidin-1-yl)acetyl)-1H-pyrrolo[3,2-b]pyridin-6-yl)-N-ethylacrylamide], the IC50 was less than 500 nM. Molecule `Cc1c(C(=O)CN2CCC[C@@H]2C)c2ncc(Br)cc2n1-c1ccc(C#N)cc1` [Compound 307] has an IC50 of less than 500 nM. For `Cc1c(C(=O)CN2CCCC[C@@H]2C)c2ncc(Br)cc2n1-c1ccc(C#N)cc1` [Compound 308], the IC50 was less than 500 nM. With `Cc1c(C(=O)CN2CCCC[C@H]2C)c2ncc(Br)cc2n1-c1ccc(C#N)cc1` [Compound 309] the IC50 was less than 500 nM. For `Cc1c(C(=O)CN2CCCC2(C)C)c2ncc(Br)cc2n1-c1ccc(C#N)cc1` [Compound 310], the IC50 was less than 500 nM. In the case of `COC1CCN(CC(=O)c2c(C)n(-c3ccc(C#N)cc3)c3cc(Br)cnc23)CC1` [Compound 311], the IC50 is reported as less than 500 nM. Work on `Cc1c(C(=O)CN2CCC(CO)CC2)c2ncc(Br)cc2n1-c1ccc(C#N)cc1` [Compound 312] yielded an IC50 of 500 to 5000 nM. `Cc1c(C(=O)CN2CC=CCC2)c2ncc(Br)cc2n1-c1ccc(C#N)cc1` [Compound 314] was tested, and the IC50 was 500 to 5000 nM. With `Cc1c(C(=O)CN2CC=CC2)c2ncc(Br)cc2n1-c1ccc(C#N)cc1` [Compound 315] the IC50 was less than 500 nM. In the case of `Cc1c(C(=O)CN2CCCCC2(C)C)c2ncc(Br)cc2n1-c1ccc(C#N)cc1` [Compound 318], the IC50 is reported as less than 500 nM. In the case of `Cc1c(C(=O)CN2CCCCC2)c2ncc(C#CCOC(=O)N(C)C)cc2n1-c1ccc(C#N)cc1` [Compound 319, 3-(1-(4-Cyanophenyl)-2-methyl-3-(2-(piperidin-1-yl)acetyl)-1H-pyrrolo[3,2-b]pyridin-6-yl)prop-2-yn-1-yl Dimethylcarbamate], the IC50 is reported as less than 500 nM. `[2H]C1([2H])N(CC(=O)c2c(C)n(-c3ccc(C#N)cc3)c3cc(Br)cnc23)C([2H])([2H])C([2H])([2H])C([2H])([2H])C1([2H])[2H]` [Compound 320] showed an IC50 of less than 500 nM. Work on `Cc1c(C(=O)CN2CCC(O)CC2)c2ncc(/C=C/c3nnc(C(F)(F)F)o3)cc2n1-c1ccc(C#N)cc1` [Compound 321] yielded an IC50 of less than 500 nM. For `Cc1c(C(=O)CN2CCC(F)(F)C2)c2ncc(Br)cc2n1-c1ccc(C#N)cc1` [Compound 324], the IC50 was greater than 5000 nM. Molecule `Cc1c(C(=O)CN2CCC2)c2ncc(Br)cc2n1-c1ccc(C#N)cc1` [Compound 325] has an IC50 greater than 5000 nM. `COc1cnc2c(C(=O)CN3CCCCC3)c(C)n(-c3ccc(C#N)cc3)c2c1` [Compound 326, 4-(6-Methoxy-2-methyl-3-(2-(piperidin-1-yl)acetyl)-1H-pyrrolo[3,2-b]pyridin-1-yl)benzonitrile] gave an IC50 of less than 500 nM. `Cc1c(C(=O)CN2CCS(=O)(=O)CC2)c2ncc(Br)cc2n1-c1ccc(C#N)cc1` [Compound 327] showed an IC50 greater than 5000 nM. `Cc1c(C(=O)CN2CC[C@H](O)[C@@H](O)C2)c2ncc(Br)cc2n1-c1ccc(C#N)cc1` [Compound 328] gave an IC50 greater than 5000 nM. Molecule `Cc1c(C(=O)CN2CCOCC2)c2ncc(Br)cc2n1-c1ccc(C#N)cc1` [Compound 329] has an IC50 greater than 5000 nM. `Cc1c(C(=O)CN2CCN(C)CC2)c2ncc(Br)cc2n1-c1ccc(C#N)cc1` [Compound 330] was tested, and the IC50 was greater than 5000 nM. For `Cc1c(C(=O)CN2CCSCC2)c2ncc(Br)cc2n1-c1ccc(C#N)cc1` [Compound 331], the IC50 was less than 500 nM. `Cc1c(C(=O)CN2CC[C@H](O)[C@H](O)C2)c2ncc(Br)cc2n1-c1ccc(C#N)cc1` [Compound 332] showed an IC50 of less than 500 nM. For `Cc1c(C(=O)CN2CCC(O)CC2)c2ncccc2n1-c1ccc(C#N)cc1` [Compound 335], the IC50 was less than 500 nM. Work on `CC(C)c1c(C(=O)CN2CCCCC2)c2ncccc2n1-c1ccc(C#N)cc1` [Compound 336] yielded an IC50 greater than 5000 nM. Molecule `Cc1c(C(=O)CN2CCC(O)CC2)c2ccccc2n1-c1ccc(C#N)cc1` [Compound 337] has an IC50 of less than 500 nM. `Cc1c(C(=O)CN2C[C@H](C)C[C@H](C)C2)c2ncc(Br)cc2n1-c1ccc(C#N)cc1` [Compound 338] was tested, and the IC50 was greater than 5000 nM. `COc1cnc2c(C(=O)CN3CCC(O)CC3)c(C)n(-c3ccc(C#N)cc3)c2c1` [Compound 339] was tested, and the IC50 was less than 500 nM. Molecule `CCOc1cnc2c(C(=O)CN3CCC(O)CC3)c(C)n(-c3ccc(C#N)cc3)c2c1` [Compound 340] has an IC50 of less than 500 nM. `COCCOc1cnc2c(C(=O)CN3CCC(O)CC3)c(C)n(-c3ccc(C#N)cc3)c2c1` [Compound 341] gave an IC50 of less than 500 nM. `Cc1c(C(=O)CN2CCC(O)CC2)c2ncc(CCNS(C)(=O)=O)cc2n1-c1ccc(Cl)cc1` [Compound 342, N-(2-(1-(4-Chlorophenyl)-3-(2-(4-hydroxypiperidin-1-yl)acetyl)-2-methyl-1H-pyrrolo[3,2-b]pyridin-6-yl)ethyl)methanesulfonamide] gave an IC50 of less than 500 nM. With `Cc1c(C(=O)CN2CC3(COC3)C2)c2ncc(Br)cc2n1-c1ccc(C#N)cc1` [Compound 343] the IC50 was greater than 5000 nM. In the case of `Cc1c(C(=O)CN2CCNC(=O)C2)c2ncc(Br)cc2n1-c1ccc(C#N)cc1` [Compound 344], the IC50 is reported as greater than 5000 nM. `Cc1c(C(=O)CN2CCCCO2)c2ncc(Br)cc2n1-c1ccc(C#N)cc1` [Compound 345] showed an IC50 greater than 5000 nM. Molecule `Cc1c(C(=O)CN2CCCCC2)c2ncc(CCN3CCCC3)cc2n1-c1ccc(Cl)cc1` [Compound 346, 1-(1-(4-Chlorophenyl)-2-methyl-6-(2-(pyrrolidin-1-yl)ethyl)-1H-pyrrolo[3,2-b]pyridin-3-yl)-2-(piperidin-1-yl)ethan-1-one] has an IC50 of less than 500 nM. `CCCOc1cnc2c(C(=O)CN3CCC(O)CC3)c(C)n(-c3ccc(C#N)cc3)c2c1` [Compound 347] was tested, and the IC50 was less than 500 nM. `Cc1c(C(=O)CN2C[C@H](C)C[C@@H](C)C2)c2ncc(Br)cc2n1-c1ccc(C#N)cc1` [Compound 348] showed an IC50 greater than 5000 nM. In the case of `Cc1c(C(=O)CN2C[C@@H](C)C[C@H](C)C2)c2ncc(Br)cc2n1-c1ccc(C#N)cc1` [Compound 349], the IC50 is reported as less than 500 nM. `CCOC(=O)C[C@@H](C)c1cnc2c(C(=O)CN3CCCCC3)c(C)n(-c3ccc(C#N)cc3)c2c1` [Compound 350, Ethyl (R)-3-(1-(4-Cyanophenyl)-2-methyl-3-(2-(piperidin-1-yl)acetyl)-1H-pyrrolo[3,2-b]pyridin-6-yl)butanoate] gave an IC50 of less than 500 nM. For `CCOC(=O)C[C@H](C)c1cnc2c(C(=O)CN3CCCCC3)c(C)n(-c3ccc(C#N)cc3)c2c1` [Compound 351, Ethyl (S)-3-(1-(4-Cyanophenyl)-2-methyl-3-(2-(piperidin-1-yl)acetyl)-1H-pyrrolo[3,2-b]pyridin-6-yl)butanoate], the IC50 was less than 500 nM. `Cc1c(C(=O)CN2CCC(CN(C)C)CC2)c2ncc(Br)cc2n1-c1ccc(C#N)cc1` [Compound 352] showed an IC50 of less than 500 nM. With `Cc1c(C(=O)CN2CCC(O)CC2)c2ncc(Br)cc2n1-c1ccc(C#N)cc1` [Compound 353] the IC50 was less than 500 nM. Molecule `Cc1c(C(=O)CN2CCC(CN)CC2)c2ncc(Br)cc2n1-c1ccc(C#N)cc1` [Compound 354] has an IC50 of less than 500 nM. Molecule `Cc1c(C(=O)CN2CC[C@@H](O)[C@@H](O)C2)c2ncc(Br)cc2n1-c1ccc(C#N)cc1` [Compound 355] has an IC50 of less than 500 nM. With `Cc1c(C(=O)CN2CC[C@H](O)[C@H](O)C2)c2ncc(Br)cc2n1-c1ccc(C#N)cc1` [Compound 356] the IC50 was less than 500 nM. `Cc1c(C(=O)CN2CCC(O)CC2)c2ncc(CCS(N)(=O)=O)cc2n1-c1ccc(Cl)cc1` [Compound 357, 2-(1-(4-Chlorophenyl)-3-(2-(4-hydroxypiperidin-1-yl)acetyl)-2-methyl-1H-pyrrolo[3,2-b]pyridin-6-yl)ethane-1-sulfonamide] was tested, and the IC50 was less than 500 nM. Molecule `Cc1c(C(=O)CN2CC3(CCC3)C2)c2ncc(Br)cc2n1-c1ccc(C#N)cc1` [Compound 359] has an IC50 greater than 5000 nM. With `Cc1c(C(=O)CN2CCCCC2)c2ncc(CN3CCCC3)cc2n1-c1ccc(C#N)cc1` [Compound 360, 4-(2-Methyl-3-(2-(piperidin-1-yl)acetyl)-6-(pyrrolidin-1-ylmethyl)-1H-pyrrolo[3,2-b]pyridin-1-yl)benzonitrile] the IC50 was less than 500 nM. Molecule `C#CCCCNC(=O)CCc1cnc2c(C(=O)CN3CCC(O)CC3)c(C)n(-c3ccc(C#N)cc3)c2c1` [Compound 361] has an IC50 of less than 500 nM. `Cc1c(C(=O)CN2CCC(O)CC2)c2ncc(CCC(=O)NCCCC#N)cc2n1-c1ccc(C#N)cc1` [Compound 362] showed an IC50 of less than 500 nM. `COCCOc1cnc2c(C(=O)CN3CCC(OC)CC3)c(C)n(-c3ccc(Cl)cc3)c2c1` [Compound 363] gave an IC50 of less than 500 nM. For `COCCOc1cnc2c(C(=O)CN3CCCCC3)c(C)n(-c3ccc(Cl)cc3)c2c1` [Compound 364], the IC50 was less than 500 nM. With `CCOC(=O)CC1CCN(CC(=O)c2c(C)n(-c3ccc(C#N)cc3)c3cc(Br)cnc23)CC1` [Compound 365] the IC50 was 500 to 5000 nM. Work on `CCOC(=O)CC1CCCN(CC(=O)c2c(C)n(-c3ccc(C#N)cc3)c3cc(Br)cnc23)C1` (stereo not shown) [Compound 366] yielded an IC50 of 500 to 5000 nM. Molecule `Cc1c(C(=O)CN2CCC(N)CC2)c2ncc(Br)cc2n1-c1ccc(C#N)cc1` [Compound 367] has an IC50 of 500 to 5000 nM.
